Series [1] has as its target Rat recombinant PDE10a (rPDE10a) (Rattus norvegicus (Rat), UniProt Q9QYJ6). The series can be described thus: In vitro assay PDE10a: rat recombinant PDE10a SPA with 3H-cAMP substrate, IC50. The series is classed as biochemical. The following applies: 60 nM cAMP, read-out: rPDE10a2 IC50. Put shortly:
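Enzyme expressed in Sf9 cells via baculovirus and Ni-sepharose purified; reaction with 3H-cAMP ran 60 min at rt, stopped with PDE SPA beads. Compounds diluted in DMSO at 100-fold final concentration; blanks omitted enzyme.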

Series [2] deals with Human recombinant PDE10A2 (Homo sapiens (Human), UniProt Q9Y233). The series can be described thus: In vitro hPDE10a: human recombinant PDE10A2 scintillation proximity assay, IC50. The series is classed as biochemical. The following applies: human recombinant PDE10A2, SPA, 60 nM cAMP; read-out: hPDE10a2 IC50. An outline of the steps:
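Purified recombinant human PDE10A2 (Ni-sepharose) was assayed by SPA, counting [3H]-AMP product captured on yttrium silicate beads added in zinc sulphate stop solution. Inhibition was expressed as % of activity without compound, with a no-enzyme low control. Repeat data points were aggregated.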
(In a scintillation proximity assay essentially only radioactivity close to the scintillant gives light.)

The nature of series [3]: PDE10a perfused brain permeability study: plasma concentrations at 30 and 120 min, brain concentration at 120 min, brain/plasma ratio. The conditions noted are these: for concentration at 2 h / Kp at 2 h: male, Sprague-Dawley, rat; for Kp at 2 h: brain/plasma.
Method: PDE10a-Brain Permeability Assay
A. PDE10a-Perfused Brain Permeability Study Protocol
Drug administration by oral gavage, subcutaneous injection or intravenous was carried out using male Sprague Dawley rats under IACUC protocol (SH-MET3010). Male Sprague Dawley rats (Charles River) ˜300-350 g were maintained on a 4% standard rodent diet (Test Diet 5001). They are allowed ad libitum access to water and food. Room temperature was maintained at 64° F. and humidity at 30-70%.
Three animals per compound were provided a dose of 2 mg/mL in 20% HpbCD/Tris pH 8 by tail i.v. or 30 mpk p.o. or s.c. in 20% HpbCD/Tris pH 8, with PDE10a antagonists. A first blood sample was collected at 30 min via retro-orbital sinus (anesthetic by 70% CO2/30% O2) into heparinzed plasma separator tubes. The blood was centrifuged and 100 μL plasma was placed into a 96 well plate and saved on dry ice.
After the 120 min, the final blood sample was collected via retro-orbital sinus under anesthesia by IP 0.5 cc injection of a 4/1 mixture of Ketaset: AnaSed [(prepared 10 mL Ketaset (100 mg/mL Ketamine)+2.5 mL AnaSed (20 mg/mL Xylazine)]. The rats were then perfused with 400 mL heparinized saline (10,000 units/L) through the left ventricle of the heart; the brains were then removed (not including the medulla), weighed and homogenized in PBS (4 mL/g tissue). The samples were stored at −80° C. and submitted for chemical analysis of blood and brain concentrations. Endpoints of sample analysis consists of the plasma concentrations at 30 and 120 min, plus brain concentrations at 120 min.
Where [4] appears, read: male Sprague Dawley rats, 2 h, perfused or non-perfused brain.

Structures can show the parent of a compound that is named as a salt. Some results are limits rather than exact numbers.

Human recombinant PDE10A2, sequence (Q9Y233 267-1055): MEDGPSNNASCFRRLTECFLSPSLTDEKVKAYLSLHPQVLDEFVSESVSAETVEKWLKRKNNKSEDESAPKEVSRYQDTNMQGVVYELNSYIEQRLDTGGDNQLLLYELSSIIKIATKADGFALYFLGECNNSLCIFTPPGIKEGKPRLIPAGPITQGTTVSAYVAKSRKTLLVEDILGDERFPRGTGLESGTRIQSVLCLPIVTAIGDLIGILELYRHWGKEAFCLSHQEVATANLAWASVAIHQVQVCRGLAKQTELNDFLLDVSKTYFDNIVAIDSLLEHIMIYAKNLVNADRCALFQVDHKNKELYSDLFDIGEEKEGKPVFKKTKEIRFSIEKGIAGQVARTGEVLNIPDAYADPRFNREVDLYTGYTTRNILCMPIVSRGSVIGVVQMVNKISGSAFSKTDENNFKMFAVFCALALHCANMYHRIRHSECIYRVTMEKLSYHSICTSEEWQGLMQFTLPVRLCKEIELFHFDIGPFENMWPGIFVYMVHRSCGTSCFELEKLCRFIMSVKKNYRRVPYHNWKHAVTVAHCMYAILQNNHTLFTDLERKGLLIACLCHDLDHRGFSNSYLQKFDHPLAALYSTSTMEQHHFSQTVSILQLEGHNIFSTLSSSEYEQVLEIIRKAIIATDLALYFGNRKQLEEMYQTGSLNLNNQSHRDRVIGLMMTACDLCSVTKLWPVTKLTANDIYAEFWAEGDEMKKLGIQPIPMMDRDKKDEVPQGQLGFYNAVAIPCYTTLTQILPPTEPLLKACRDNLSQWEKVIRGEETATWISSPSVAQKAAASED
Rat recombinant PDE10a (rPDE10a), sequence (Q9QYJ6 whole entry): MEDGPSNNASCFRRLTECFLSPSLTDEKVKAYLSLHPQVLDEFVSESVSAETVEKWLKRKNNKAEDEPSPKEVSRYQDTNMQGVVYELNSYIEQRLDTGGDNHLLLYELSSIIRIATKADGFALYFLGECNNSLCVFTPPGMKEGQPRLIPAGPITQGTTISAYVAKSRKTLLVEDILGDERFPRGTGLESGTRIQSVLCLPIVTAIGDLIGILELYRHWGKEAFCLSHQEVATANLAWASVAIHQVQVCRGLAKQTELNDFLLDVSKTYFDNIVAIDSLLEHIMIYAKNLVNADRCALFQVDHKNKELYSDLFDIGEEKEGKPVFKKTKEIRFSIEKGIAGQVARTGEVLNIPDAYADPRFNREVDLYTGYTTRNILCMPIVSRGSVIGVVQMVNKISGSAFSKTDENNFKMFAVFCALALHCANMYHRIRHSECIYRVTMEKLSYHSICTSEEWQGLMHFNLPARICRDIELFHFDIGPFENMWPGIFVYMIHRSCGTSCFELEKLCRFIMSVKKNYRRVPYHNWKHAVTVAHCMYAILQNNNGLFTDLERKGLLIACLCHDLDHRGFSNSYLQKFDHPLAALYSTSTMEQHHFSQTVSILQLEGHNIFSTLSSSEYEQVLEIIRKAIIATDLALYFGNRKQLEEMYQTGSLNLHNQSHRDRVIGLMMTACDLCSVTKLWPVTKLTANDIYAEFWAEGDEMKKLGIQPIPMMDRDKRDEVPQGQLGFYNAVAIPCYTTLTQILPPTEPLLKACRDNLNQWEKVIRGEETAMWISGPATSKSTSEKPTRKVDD

Take `O=c1[nH]c(-c2ccc(-c3c(/C=C/c4ccc5ccccc5n4)nc4c(N5CCOCC5)ccnn34)cc2)no1` [Cpd 102, (E)-3-(4-(8-Morpholino-2-(2-(quinolin-2-yl)vinyl)imidazo[1,2-b]pyridazin-3-yl)phenyl)-1,2,4-oxadiazol-5(4H)-one]: the IC50 in series [1] is 5 nM; in series [2] it was 4 nM. Besides, the values for the concentration at 2 h in series [3] (brain) and in series [3] (plasma) were 0 ng/g and 155 ng/mL, respectively. In addition, in series [3], the Kp at 2 h stood at 0.

Turning to `CS(=O)(=O)NC(=O)c1ccc(-c2c(C#Cc3ccc4ccccc4n3)nc3c(N4CCOCC4)ccnn23)cn1` [Cpd 28, N-(Methylsulfonyl)-5-(8-morpholino-2-(quinolin-2-ylethynyl)imidazo[1,2-b]pyridazin-3-yl)picolinamide], the IC50 in series [1] and in series [2] was 1 nM each time. Further, the concentration at 2 h came out at 0.95 ng/g in series [3] (brain) and 136 ng/mL in series [3] (plasma). Moreover, the Kp at 2 h in series [3] was 0.01.

On to `O=C(O)CCNC(=O)c1ccc(-c2c(/C=C/c3ccc4ccccc4n3)nc3c(N4CCOCC4)ccnn23)cc1` [compound 44, (E)-3-(4-(8-Morpholino-2-(2-(quinolin-2-yl)vinyl)imidazo[1,2-b]pyridazin-3-yl)benzamido)propanoic acid], for which the values for the IC50 in series [1] and in series [2] were 1 nM and 4 nM, respectively. The concentration at 2 h in series [3] (brain) worked out at 0 ng/g; in series [3] (plasma), 83 ng/mL. Moreover, the Kp at 2 h in series [3] was 0.

Consider `O=C(O)c1cccc(-c2c(/C=C/c3ccc4ccccc4n3)nc3c(N4CCOCC4)ccnn23)c1` [Cpd 124, (E)-3-(8-Morpholino-2-(2-(quinolin-2-yl)vinyl)imidazo[1,2-b]pyridazin-3-yl)benzoic acid], for which the IC50 was 9 nM in series [1] and 4 nM in series [2]. The concentration at 2 h is 0 ng/g in series [3] (brain) and 86.6 ng/mL in series [3] (plasma). Moreover, the Kp at 2 h in series [3] came to 0.

For `O=C(O)CCc1ccc(-c2c(/C=C/c3ccc4ccccc4n3)nc3c(N4CCOCC4)ccnn23)cc1` [Cpd 128, 3-(4-{8-Morpholin-4-yl-2-[(E)-2-quinolin-2-ylethenyl]imidazo[1,2-b]pyridazin-3-yl}phenyl)propanoic acid], the IC50 in series [1] and in series [2] was 5 nM in each case. Also, the concentration at 2 h in series [3] (brain) came to 0 ng/g; in series [3] (plasma), 314 ng/mL. Also, in series [3], the Kp at 2 h was 0.

For `O=C(O)c1ccc(-c2c(/C=C/c3ccc4ccccc4n3)nc3c(N4CCOCC4)ccnn23)cc1` [compound 40, (E)-4-(8-Morpholino-2-(2-(quinolin-2-yl)vinyl)imidazo[1,2-b]pyridazin-3-yl)benzoic acid trifluoroacetic acid salt], the half-inhibitory concentration (IC50) in series [1] and in series [2] was 2 nM each time. Moreover, the concentration at 2 h in series [3] (brain) came to 0 ng/g; in series [3] (plasma) it was 499 ng/mL. Also, the partition ratio (Kp) at 2 h in series [3] was 0.

Take `O=C(O)C1CCN(c2ccc(-c3c(/C=C/c4ccc5ccccc5n4)nc4c(N5CCOCC5)ccnn34)cc2)CC1` [Cpd 100, (E)-1-(4-(8-Morpholino-2-(2-(quinolin-2-yl)vinyl)imidazo[1,2-b]pyridazin-3-yl)phenyl)piperidine-4-carboxylic acid trifluoroacetic acid salt]: the IC50 in series [1] is 6 nM; in series [2], 3 nM. In addition, the figures for the concentration at 2 h in series [3] (brain) and in series [3] (plasma) were 60.7 ng/g and 2840 ng/mL, respectively. Also, the Kp at 2 h in series [3] was found to be 0.02.

Regarding `CS(=O)(=O)NC(=O)c1ccc(-c2c(/C=C/c3ccc4ccccc4n3)nc3c(N4CCOCC4)ccnn23)cn1` [Cpd 27, (E)-N-(Methylsulfonyl)-5-(8-morpholino-2-(2-(quinolin-2-yl)vinyl)imidazo[1,2-b]pyridazin-3-yl)picolinamide trifluoroacetic acid salt], the IC50 in series [1] and in series [2] was 2 nM throughout. Also, the concentration at 2 h in series [3] (brain) was 1.69 ng/g; in series [3] (plasma), 438 ng/mL. Further, the Kp at 2 h in series [3] is 0.005.

On to `O=C(O)CNc1ccc(-c2c(/C=C/c3ccc4ccccc4n3)nc3c(N4CCOCC4)ccnn23)cn1` [Cpd 17, (E)-2-(5-(8-Morpholino-2-(2-(quinolin-2-yl)vinyl)imidazo[1,2-b]pyridazin-3-yl)pyridin-2-ylamino)acetic acid], for which the IC50 was determined as 2 nM in series [1] and 3 nM in series [2]. Further, the results for the concentration at 2 h in series [3] (brain) and in series [3] (plasma) were 0 ng/g and 15.7 ng/mL, respectively. The Kp at 2 h in series [3] turned out to be 0.

For the compound `O=C(O)c1ccc(-c2c(/C=C/c3ccc4ccccc4n3)nc3c(N4CCOCC4)ccnn23)cc1F` [compound 103, (E)-2-Fluoro-4-(8-morpholino-2-(2-(quinolin-2-yl)vinyl)imidazo[1,2-b]pyridazin-3-yl)benzoic acid], the IC50 in series [1] and in series [2] was 3 nM in each case. The concentration at 2 h was found to be 0 ng/g in series [3] (brain) and 199 ng/mL in series [3] (plasma). For the same compound, the Kp at 2 h in series [3] amounted to 0.

Consider `Oc1nc(O)c(-c2ccc(-c3c(/C=C/c4ccc5ccccc5n4)nc4c(N5CCOCC5)ccnn34)cc2)o1` [Cpd 65, 5-(4-{8-Morpholin-4-yl-2-[(E)-2-quinolin-2-ylethenyl]imidazo[1,2-b]pyridazin-3-yl}phenyl)-1,3-oxazole-2,4-diol], for which the IC50 in series [1] was 8 nM; in series [2], 10 nM. For the same compound, the results for the concentration at 2 h in series [3] (brain) and in series [3] (plasma) were 14.5 ng/g and 1610 ng/mL, respectively. For the same compound, in series [3], the Kp at 2 h came out at 0.01.

As for `O=C(O)C1CCN(c2ccc(-c3c([C@H]4C[C@H](c5ccc6ccccc6n5)C4)nc4c(N5CCOCC5)ccnn34)cc2)CC1` [compound 168, 1-(4-(8-Morpholino-2-((1r,3r)-3-(quinolin-2-yl)cyclobutyl)imidazo[1,2-b]pyridazin-3-yl)phenyl)piperidine-4-carboxylic acid], the IC50 in series [2] worked out at 2 nM. Also, the results for the concentration at 2 h in series [3] (brain) and in series [3] (plasma) were 30.1 ng/g and 1200 ng/mL, respectively. Further, the Kp at 2 h in series [3] was 0.02.

Regarding `O=C(O)CNc1ccc(-c2c(C#Cc3ccc4ccccc4n3)nc3c(N4CCOCC4)ccnn23)cn1` [Cpd 24, 2-(5-(8-Morpholino-2-(2-(quinolin-2-yl)ethynyl)imidazo[1,2-b]pyridazin-3-yl)pyridin-2-ylamino)acetic acid trifluoroacetic acid salt], the IC50 in series [1] and in series [2] was 1 nM in each case. Also, the concentration at 2 h in series [3] (brain) stood at 1.35 ng/g; in series [3] (plasma), 5.37 ng/mL. The Kp at 2 h in series [3] was determined as 0.2.

On to `CC(=O)NS(=O)(=O)c1ccc(-c2c(CCc3ccc4ccccc4n3)nc3c(N4CCOCC4)ccnn23)cc1` [compound 42, N-((4-(8-Morpholino-2-(2-(quinolin-2-yl)ethyl)imidazo[1,2-b]pyridazin-3-yl)phenyl)sulfonyl)acetamide], for which the IC50 in series [1] and in series [2] was 1 nM each time. The results for the concentration at 2 h in series [3] (brain) and in series [3] (plasma) were 0 ng/g and 34 ng/mL, respectively. The Kp at 2 h in series [3] was 0.

As to `Oc1nc(-c2ccc(-c3c(C#Cc4ccc5ccccc5n4)nc4c(N5CCOCC5)ccnn34)cn2)no1` [Cpd 26, 3-(5-(8-Morpholino-2-(quinolin-2-ylethynyl)imidazo[1,2-b]pyridazin-3-yl)pyridin-2-yl)-1,2,4-oxadiazol-5-ol], the concentration at 2 h in series [3] (brain) was 37.8 ng/g; in series [3] (plasma) it was 150 ng/mL. The Kp at 2 h in series [3] was found to be 0.26.

For `C(=C\c1nc2c(N3CCOCC3)ccnn2c1-c1ccc(Sc2nnc[nH]2)nc1)/c1ccc2ccccc2n1` [Cpd 22, (E)-2-(2-(3-(6-(4H-1,2,4-Triazol-3-ylthio)pyridin-3-yl)-8-morpholinoimidazo[1,2-b]pyridazin-2-yl)vinyl)quinoline], the figures for the concentration at 2 h in series [3] (brain) and in series [3] (plasma) were 117 ng/g and 788 ng/mL, respectively. The Kp at 2 h in series [3] came out at 0.17.

Consider `O=C(O)c1ccc(-c2c([C@H]3C[C@H](c4ccc5ccccc5n4)C3)nc3c(N4CCOCC4)ccnn23)cc1` [compound 164, 4-(8-Morpholino-2-((1r,3r)-3-(quinolin-2-yl)cyclobutyl)imidazo[1,2-b]pyridazin-3-yl)benzoic acid trifluoroacetic acid salt], for which the IC50 in series [2] is below 1 nM. For the same compound, the figures for the concentration at 2 h in series [3] (brain) and in series [3] (plasma) were 0 ng/g and 162 ng/mL, respectively. Besides, in series [3], the Kp at 2 h stood at 0.

Turning to `O=C(O)c1ccc(-c2c([C@@H]3C[C@@H]3c3ccc4ccccc4n3)nc3c(N4CCOCC4)cc(Cl)nn23)cc1` [Cpd 147, 4-(6-Chloro-8-morpholino-2-((1R,2S)-2-(quinolin-2-yl)cyclopropyl)imidazo[1,2-b]pyridazin-3-yl)benzoic acid trifluoroacetic acid salt], the results for the IC50 in series [1] and in series [2] were 4 nM and 7 nM, respectively.

Turning to `O=C(O)C(F)(F)F.O=C(O)CN1CCC(c2c(C#Cc3ccc4ccccc4n3)nc3c(N4CCOCC4)ccnn23)CC1` [Cpd 25, 2-(4-(8-Morpholino-2-(quinolin-2-ylethynyl)imidazo[1,2-b]pyridazin-3-yl)piperidin-1-yl)acetic acid trifluoroacetic acid salt], in series [3] (setting [4]), the “Brain conc 2 h” value is 0 ng/g and the “Ratio Br/Pl Mean 2 h” value came to 0. The “Plasma conc 2 h” value in series [3] (male Sprague Dawley rats, 2 h, perfused or non-perfused brain study) was 5.77 ng/mL.

For `Nc1ccc(-c2c(/C=C/c3ccc4ccccc4n3)nc3c(N4CCOCC4)ccnn23)cn1` [Cpd 18, (E)-5-(8-Morpholino-2-(2-(quinolin-2-yl)vinyl)imidazo[1,2-b]pyridazin-3-yl)pyridin-2-amine], the figures for the IC50 in series [1] and in series [2] were 3 nM and 6 nM, respectively.

A word on the IC50: it is the concentration that gives 50% inhibition. In general, Kp refers to tissue or fluid exposure divided by exposure in the circulation.

Values taken from patent US9193736B2, “PDE 10a inhibitors for the treatment of type II diabetes” (Janssen Pharmaceutica, NV, priority 2013, dated 2015).
